Measurements published in publication PMC4542539, “The Multiple DSF-family QS Signals are Synthesized from Carbohydrate and Branched-chain Amino Acids via the FAS Elongation Cycle” (Scientific Reports, 2015).

Target: RpfF (Xanthomonas campestris, UniProt Q7CLS3)
Experiment: HPLC and LC-MS of product formed by purified His-tagged RpfF
Assay type: biochemical
Details: formed from 3-hydroxydodecanoyl-ACP (dehydratase and thioesterase); Tris-HCl pH 7.5, ATP, Mg2+, Vibrio harveyi AasS; 37 °C, 30 min

Chain of RpfF (Q7CLS3 entry or part of it): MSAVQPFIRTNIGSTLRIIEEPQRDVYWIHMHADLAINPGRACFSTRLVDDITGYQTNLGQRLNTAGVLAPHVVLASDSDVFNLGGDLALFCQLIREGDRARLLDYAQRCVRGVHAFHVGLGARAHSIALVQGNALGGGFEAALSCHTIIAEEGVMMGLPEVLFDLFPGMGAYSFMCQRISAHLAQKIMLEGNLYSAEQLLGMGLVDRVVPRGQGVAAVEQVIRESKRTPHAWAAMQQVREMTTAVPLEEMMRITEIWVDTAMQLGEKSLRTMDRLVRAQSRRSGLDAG

Compound: CCCCCCCCC/C=C\C(=O)O [BDSF, cis-2-dodecenoic acid]
- HPLC and LC-MS of product formed by purified His-tagged RpfF: detected in the reaction mixture containing RpfF and 3-OH-C12:0-ACP
